Measurements reported in paper PMC10917151 (Nature chemical biology, 2023).

How the values were obtained:
[1] = target: endogenous BRD4 in HEK293T cells (Homo sapiens, UniProt O60885); assay: Western blot of endogenous BRD4 degradation; format: cell-based; details: 18 h
VHL-LgBiT (human) = VHL-LgBiT (human) (UniProt P40337)
Chain of VHL-LgBiT (human) (P40337 whole entry): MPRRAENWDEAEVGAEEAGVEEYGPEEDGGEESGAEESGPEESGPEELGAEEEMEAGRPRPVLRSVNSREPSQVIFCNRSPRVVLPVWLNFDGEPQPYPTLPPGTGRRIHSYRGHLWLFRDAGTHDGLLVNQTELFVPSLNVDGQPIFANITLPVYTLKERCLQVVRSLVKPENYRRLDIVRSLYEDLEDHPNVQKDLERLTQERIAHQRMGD

Cc1ncsc1-c1ccc(CNC(=O)[C@@H]2C[C@@H](O)CN2C(=O)[C@@H](NC(=O)COCCOCCOCCNC(=O)C[C@@H]2N=C(c3ccc(Cl)cc3)c3c(sc(C)c3C)-n3c(C)nnc32)C(C)(C)C)cc1 [MZ1]
endogenous BRD4 degradation at 1 μM (Western blot) ([1]; 1 μM): complete BRD4 removal

CC(=O)N[C@H](C(=O)N1C[C@H](O)C[C@H]1C(=O)NCc1ccc(-c2scnc2C)cc1)C(C)(C)C [VH032]
endogenous BRD4 degradation (Western blot) [1]: no degradation

SmBiT-BRD4^BD1 (domain or fragment)
HiBiT assay: DC50 of degradation of HiBiT-tagged BRD4^BD1 in HEK293T with CIP-2 (VHL-LgBiT (human)): 17 nM
HiBiT assay: Dmax of degradation of HiBiT-tagged BRD4^BD1 in HEK293T with CIP-2 (VHL-LgBiT (human)): 93%
